Data as given in patent publication US11203601B2, “Tricyclic compounds as glycogen synthase kinase 3 (GSK3) inhibitors and uses thereof” (The Broad Institute, Inc., priority 2017, dated 2021).

What was measured:
Experiment in all cases: Carna kinome panel
Type in all cases: biochemical
Conditions in all cases: read-out: % Inhibition at 10 μM of the test compound
MET = MET (Homo sapiens (Human), UniProt P08581)
ALK(G1202R) = ALK(G1202R) (Homo sapiens (Human), UniProt Q9UM73, G1202R)
PLK1 = PLK1 (Homo sapiens (Human), UniProt P53350)
SRC = SRC (Homo sapiens (Human), UniProt P12931)
PAK1 = PAK1 (Homo sapiens (Human), UniProt Q13153)
MAP2K6_Cascade = MAP2K6_Cascade (Homo sapiens (Human), UniProt P52564)
MARK1 = MARK1 (Homo sapiens (Human), UniProt Q9P0L2)
EPHB3 = EPHB3 (Homo sapiens (Human), UniProt P54753)
DDR1 = DDR1 (Homo sapiens (Human), UniProt Q08345)
PBK = PBK (Homo sapiens (Human), UniProt Q96KB5)
AKT1 = AKT1 (Homo sapiens (Human), UniProt P31749)
MAP2K7_Cascade = MAP2K7_Cascade (Homo sapiens (Human), UniProt O14733)
CaMK2δ = CaMK2δ (Homo sapiens (Human), UniProt Q13557)
SRM = SRM (Homo sapiens (Human), UniProt Q9H3Y6)
p70S6Kβ = p70S6Kβ (Homo sapiens (Human), UniProt Q9UBS0)
PKD2 = PKD2 (Homo sapiens (Human), UniProt Q9BZL6)
RET(S891A) = RET(S891A) (Homo sapiens (Human), UniProt P07949, S891A)
PDGFRα(D842V) = PDGFRα(D842V) (Homo sapiens (Human), UniProt P16234, D842V)
NEK2 = NEK2 (Homo sapiens (Human), UniProt P51955)
MNK1 = MNK1 (Homo sapiens (Human), UniProt Q9BUB5)
BTK = BTK (Homo sapiens (Human), UniProt Q06187)
FLT1 = FLT1 (Homo sapiens (Human), UniProt P17948)
PKD1 = PKD1 (Homo sapiens (Human), UniProt Q15139)
JAK2 = JAK2 (Homo sapiens (Human), UniProt O60674)
RSK3 = RSK3 (Homo sapiens (Human), UniProt Q15349)
MRCKβ = MRCKβ (Homo sapiens (Human), UniProt Q9Y5S2)
SRPK1 = SRPK1 (Homo sapiens (Human), UniProt Q96SB4)
BRAF(V600E)_Cascade = BRAF(V600E)_Cascade (Homo sapiens (Human), UniProt P15056, V600E)
PDGFRβ = PDGFRβ (Homo sapiens (Human), UniProt P09619)
CK1γ2 = CK1γ2 (Homo sapiens (Human), UniProt P78368)
SRPK2 = SRPK2 (Homo sapiens (Human), UniProt P78362)
MAP2K2_Cascade = MAP2K2_Cascade (Homo sapiens (Human), UniProt P36507)
DCAMKL2 = DCAMKL2 (Homo sapiens (Human), UniProt Q8N568)
KIT = KIT (Homo sapiens (Human), UniProt P10721)
DYRK3 = DYRK3 (Homo sapiens (Human), UniProt O43781)
PLK3 = PLK3 (Homo sapiens (Human), UniProt Q9H4B4)
NEK1 = NEK1 (Homo sapiens (Human), UniProt Q96PY6)
FGFR4(V550E) = FGFR4(V550E) (Homo sapiens (Human), UniProt P22455, V550E)
TYRO3 = TYRO3 (Homo sapiens (Human), UniProt Q06418)
PEK = PEK (Homo sapiens (Human), UniProt Q9NZJ5)

PDGFRβ, sequence (P09619 33-1106): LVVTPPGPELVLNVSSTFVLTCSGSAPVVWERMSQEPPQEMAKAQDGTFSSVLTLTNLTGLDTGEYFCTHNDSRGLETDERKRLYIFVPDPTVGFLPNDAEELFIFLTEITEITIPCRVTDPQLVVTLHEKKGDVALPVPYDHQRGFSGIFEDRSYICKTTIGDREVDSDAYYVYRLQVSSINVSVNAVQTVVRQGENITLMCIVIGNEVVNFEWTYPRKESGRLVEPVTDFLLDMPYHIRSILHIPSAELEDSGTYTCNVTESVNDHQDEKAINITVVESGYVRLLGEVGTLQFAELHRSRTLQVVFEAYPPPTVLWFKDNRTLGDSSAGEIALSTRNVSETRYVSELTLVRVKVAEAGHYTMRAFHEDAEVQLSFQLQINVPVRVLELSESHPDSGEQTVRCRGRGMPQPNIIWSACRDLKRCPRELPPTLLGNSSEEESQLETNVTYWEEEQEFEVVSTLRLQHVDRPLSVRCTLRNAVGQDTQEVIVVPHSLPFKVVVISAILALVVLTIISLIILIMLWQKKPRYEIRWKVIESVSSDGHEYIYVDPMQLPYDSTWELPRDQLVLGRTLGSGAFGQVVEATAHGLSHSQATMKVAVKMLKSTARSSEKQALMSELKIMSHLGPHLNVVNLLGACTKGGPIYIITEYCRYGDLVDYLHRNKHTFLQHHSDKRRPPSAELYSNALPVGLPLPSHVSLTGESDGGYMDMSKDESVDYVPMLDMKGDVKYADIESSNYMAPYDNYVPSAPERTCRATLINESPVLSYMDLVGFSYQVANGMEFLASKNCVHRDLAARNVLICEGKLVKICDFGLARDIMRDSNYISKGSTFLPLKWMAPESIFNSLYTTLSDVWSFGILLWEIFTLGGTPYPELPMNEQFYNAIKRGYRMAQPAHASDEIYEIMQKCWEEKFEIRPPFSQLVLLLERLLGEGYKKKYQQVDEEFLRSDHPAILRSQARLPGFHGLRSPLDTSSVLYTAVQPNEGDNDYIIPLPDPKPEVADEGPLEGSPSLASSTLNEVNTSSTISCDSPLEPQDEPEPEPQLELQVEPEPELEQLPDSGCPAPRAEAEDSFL
SRPK1, sequence (Q96SB4 whole entry): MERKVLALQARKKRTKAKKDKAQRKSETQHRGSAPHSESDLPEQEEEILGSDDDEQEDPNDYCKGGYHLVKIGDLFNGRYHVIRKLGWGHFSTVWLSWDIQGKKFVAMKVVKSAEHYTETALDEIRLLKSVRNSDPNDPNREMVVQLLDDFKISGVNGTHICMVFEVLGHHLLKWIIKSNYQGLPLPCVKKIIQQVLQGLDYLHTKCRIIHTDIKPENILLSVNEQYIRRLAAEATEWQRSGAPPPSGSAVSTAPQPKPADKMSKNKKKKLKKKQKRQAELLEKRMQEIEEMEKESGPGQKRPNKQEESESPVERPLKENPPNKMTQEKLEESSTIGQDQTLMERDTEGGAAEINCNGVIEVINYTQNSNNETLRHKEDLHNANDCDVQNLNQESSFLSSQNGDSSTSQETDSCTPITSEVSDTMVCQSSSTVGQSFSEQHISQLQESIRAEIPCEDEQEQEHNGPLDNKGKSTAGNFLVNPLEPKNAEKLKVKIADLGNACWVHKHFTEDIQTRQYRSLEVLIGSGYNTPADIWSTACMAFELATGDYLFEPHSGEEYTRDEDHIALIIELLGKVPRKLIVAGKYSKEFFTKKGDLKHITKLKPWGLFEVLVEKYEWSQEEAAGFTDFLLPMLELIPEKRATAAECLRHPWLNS
FGFR4(V550E), sequence (P22455 22-802 V550E): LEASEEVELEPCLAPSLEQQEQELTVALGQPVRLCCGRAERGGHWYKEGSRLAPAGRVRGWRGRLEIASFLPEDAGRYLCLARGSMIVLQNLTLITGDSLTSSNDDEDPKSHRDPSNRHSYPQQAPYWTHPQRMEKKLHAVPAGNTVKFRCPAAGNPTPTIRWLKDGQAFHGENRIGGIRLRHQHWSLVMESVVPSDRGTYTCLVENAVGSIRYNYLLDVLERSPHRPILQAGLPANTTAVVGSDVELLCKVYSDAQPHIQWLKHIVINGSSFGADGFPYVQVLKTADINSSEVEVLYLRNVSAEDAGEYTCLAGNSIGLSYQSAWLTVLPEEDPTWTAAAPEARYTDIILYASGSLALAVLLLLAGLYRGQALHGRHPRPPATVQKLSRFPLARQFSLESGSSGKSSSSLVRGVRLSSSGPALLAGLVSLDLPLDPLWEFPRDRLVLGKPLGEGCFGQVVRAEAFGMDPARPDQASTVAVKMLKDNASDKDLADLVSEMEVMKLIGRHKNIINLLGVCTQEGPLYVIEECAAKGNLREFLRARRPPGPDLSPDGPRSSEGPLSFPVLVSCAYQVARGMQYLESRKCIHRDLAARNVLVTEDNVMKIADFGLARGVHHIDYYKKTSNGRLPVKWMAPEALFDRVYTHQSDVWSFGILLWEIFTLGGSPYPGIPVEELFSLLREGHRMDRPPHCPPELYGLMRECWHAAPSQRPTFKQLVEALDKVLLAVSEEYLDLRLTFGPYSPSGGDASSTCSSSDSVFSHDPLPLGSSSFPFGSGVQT
RSK3, sequence (Q15349 whole entry): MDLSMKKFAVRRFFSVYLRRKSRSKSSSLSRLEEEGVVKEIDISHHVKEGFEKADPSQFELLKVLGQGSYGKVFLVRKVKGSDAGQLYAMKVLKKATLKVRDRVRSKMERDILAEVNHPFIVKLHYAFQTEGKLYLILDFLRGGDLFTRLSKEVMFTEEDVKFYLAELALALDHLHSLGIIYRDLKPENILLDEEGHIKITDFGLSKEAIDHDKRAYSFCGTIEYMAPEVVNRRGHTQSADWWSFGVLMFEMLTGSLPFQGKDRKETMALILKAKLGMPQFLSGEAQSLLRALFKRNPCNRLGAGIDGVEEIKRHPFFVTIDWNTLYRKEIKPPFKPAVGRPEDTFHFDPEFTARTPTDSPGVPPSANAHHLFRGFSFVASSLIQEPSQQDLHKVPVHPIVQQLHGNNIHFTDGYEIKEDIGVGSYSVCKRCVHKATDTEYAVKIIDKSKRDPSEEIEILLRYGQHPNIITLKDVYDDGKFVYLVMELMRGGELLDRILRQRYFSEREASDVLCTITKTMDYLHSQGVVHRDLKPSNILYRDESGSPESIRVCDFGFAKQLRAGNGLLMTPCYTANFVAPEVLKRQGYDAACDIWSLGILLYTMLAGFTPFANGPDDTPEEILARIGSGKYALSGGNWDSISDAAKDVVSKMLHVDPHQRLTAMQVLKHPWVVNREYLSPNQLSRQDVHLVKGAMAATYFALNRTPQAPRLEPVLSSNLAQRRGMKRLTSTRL
MET, sequence (P08581 25-1390): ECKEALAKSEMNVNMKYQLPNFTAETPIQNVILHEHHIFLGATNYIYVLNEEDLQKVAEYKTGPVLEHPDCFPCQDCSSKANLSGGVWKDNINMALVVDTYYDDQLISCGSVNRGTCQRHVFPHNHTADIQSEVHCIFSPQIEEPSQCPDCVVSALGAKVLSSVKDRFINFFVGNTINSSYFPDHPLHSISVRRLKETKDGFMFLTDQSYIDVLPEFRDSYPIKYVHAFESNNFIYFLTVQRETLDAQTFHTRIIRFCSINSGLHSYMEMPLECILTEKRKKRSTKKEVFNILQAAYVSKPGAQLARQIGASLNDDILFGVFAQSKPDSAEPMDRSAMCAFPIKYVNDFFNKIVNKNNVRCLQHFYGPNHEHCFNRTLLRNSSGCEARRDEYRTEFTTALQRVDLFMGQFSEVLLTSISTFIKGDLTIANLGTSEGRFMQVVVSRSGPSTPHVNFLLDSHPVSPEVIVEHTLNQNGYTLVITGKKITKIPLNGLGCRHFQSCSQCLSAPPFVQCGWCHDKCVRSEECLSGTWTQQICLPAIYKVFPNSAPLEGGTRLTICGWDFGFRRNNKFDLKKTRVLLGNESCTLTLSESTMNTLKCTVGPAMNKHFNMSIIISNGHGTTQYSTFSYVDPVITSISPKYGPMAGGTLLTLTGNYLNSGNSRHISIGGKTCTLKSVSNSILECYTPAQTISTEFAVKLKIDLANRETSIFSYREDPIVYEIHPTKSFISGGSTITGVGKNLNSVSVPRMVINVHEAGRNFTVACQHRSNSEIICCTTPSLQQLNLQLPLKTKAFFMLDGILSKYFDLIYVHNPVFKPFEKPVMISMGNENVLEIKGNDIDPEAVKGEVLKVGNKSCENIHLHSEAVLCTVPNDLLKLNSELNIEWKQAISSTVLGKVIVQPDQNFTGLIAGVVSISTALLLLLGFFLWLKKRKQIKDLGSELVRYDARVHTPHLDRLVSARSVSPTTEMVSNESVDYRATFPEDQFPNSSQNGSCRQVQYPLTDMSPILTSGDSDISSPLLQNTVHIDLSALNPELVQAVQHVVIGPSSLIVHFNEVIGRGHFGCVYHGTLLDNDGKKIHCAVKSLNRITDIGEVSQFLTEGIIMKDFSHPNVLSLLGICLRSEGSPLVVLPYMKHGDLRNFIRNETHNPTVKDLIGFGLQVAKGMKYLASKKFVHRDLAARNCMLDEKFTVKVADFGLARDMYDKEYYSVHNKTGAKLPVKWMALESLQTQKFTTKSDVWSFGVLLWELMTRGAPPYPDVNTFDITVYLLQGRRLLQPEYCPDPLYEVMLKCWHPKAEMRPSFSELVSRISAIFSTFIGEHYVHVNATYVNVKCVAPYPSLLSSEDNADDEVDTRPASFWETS
AKT1, sequence (P31749 whole entry): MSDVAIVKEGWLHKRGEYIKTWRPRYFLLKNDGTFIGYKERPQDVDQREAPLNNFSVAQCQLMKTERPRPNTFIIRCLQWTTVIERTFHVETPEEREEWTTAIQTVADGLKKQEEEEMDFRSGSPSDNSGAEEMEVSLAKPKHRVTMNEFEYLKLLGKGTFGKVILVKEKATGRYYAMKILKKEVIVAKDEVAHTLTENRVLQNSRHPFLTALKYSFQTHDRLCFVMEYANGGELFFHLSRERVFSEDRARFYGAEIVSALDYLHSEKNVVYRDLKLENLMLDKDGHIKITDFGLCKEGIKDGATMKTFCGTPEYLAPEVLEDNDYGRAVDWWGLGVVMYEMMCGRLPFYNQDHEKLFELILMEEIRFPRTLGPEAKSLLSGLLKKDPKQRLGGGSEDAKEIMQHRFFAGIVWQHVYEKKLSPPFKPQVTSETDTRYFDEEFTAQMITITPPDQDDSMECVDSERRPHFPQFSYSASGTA

`CCC1(c2ccccc2)C2=C(CC(C)(C)CC2=O)Nc2ncsc21` (stereo not shown) [Compound 1, 9-Ethyl-6,6-dimethyl-9-phenyl-5,6,7,9-tetrahydrothiazolo[4,5-b]quinolin-8(4H)-one] was tested, and the inhibition at 10 µM (MET) was 8.9%, the inhibition at 10 µM (ALK(G1202R)) was -5% and the inhibition at 10 µM (PLK1) was -5.3%. The inhibition at 10 µM (SRC) was -2.2%, the inhibition at 10 µM (PAK1) was 0.3% and the inhibition at 10 µM (MAP2K6_Cascade) was 5.6%. The inhibition at 10 µM (MARK1) was -1.7%, the inhibition at 10 µM (EPHB3) was -4.8% and the inhibition at 10 µM (DDR1) was 1.4%. The inhibition at 10 µM (PBK) was 0.8%, the inhibition at 10 µM (AKT1) was 0.7% and the inhibition at 10 µM (MAP2K7_Cascade) was 2.8%. For the same molecule, the inhibition at 10 µM (CaMK2δ) was -8.6%, the inhibition at 10 µM (SRM) was -15.1% and the inhibition at 10 µM (p70S6Kβ) was 0.5%. It also gave an inhibition at 10 µM (PKD2) of -13.8%, an inhibition at 10 µM (RET(S891A)) of 1.4% and an inhibition at 10 µM (PDGFRα(D842V)) of -3.4%. It also gave an inhibition at 10 µM (NEK2) of 0.9%, an inhibition at 10 µM (MNK1) of -3.4% and an inhibition at 10 µM (BTK) of -1.6%. It also gave an inhibition at 10 µM (FLT1) of 6.2%, an inhibition at 10 µM (PKD1) of 1% and an inhibition at 10 µM (JAK2) of -0.9%. The inhibition at 10 µM (RSK3) was -4.9%, the inhibition at 10 µM (MRCKβ) was 2% and the inhibition at 10 µM (SRPK1) was -0.3%. For the same molecule, the inhibition at 10 µM (BRAF(V600E)_Cascade) was 6.1%, the inhibition at 10 µM (PDGFRβ) was 2.5% and the inhibition at 10 µM (CK1γ2) was 3.1%. The inhibition at 10 µM (SRPK2) was 3.1%, the inhibition at 10 µM (MAP2K2_Cascade) was 6.4% and the inhibition at 10 µM (DCAMKL2) was -7.6%. For the same molecule, the inhibition at 10 µM (KIT) was 7.1%, the inhibition at 10 µM (DYRK3) was 0.3% and the inhibition at 10 µM (PLK3) was 3.4%. It also gave an inhibition at 10 µM (NEK1) of 7.5%, an inhibition at 10 µM (FGFR4(V550E)) of 4% and an inhibition at 10 µM (TYRO3) of 3.8%. It also gave an inhibition at 10 µM (PEK) of -6%.
